Experimental findings from US4820718A, “N-alkyl-(2- or 5-substituted-2-methoxycarbonyl aminoalkyl furanyl)-substituted cyclimmonium salts and use thereof in PAF inhibition” (Sandoz Pharm. Corp., priority 1987, dated 1989) are described below.

In data set [1] the test system is PAF-induced bronchoconstriction. Kind of data set: Decrease in inhibition of bronchoconstriction over time (Test I). Type of data set: in vivo, guinea pig. To be noted: i.v., x times the ED50, time still inhibiting 50%.
Experimental: Male guinea pigs, weighing between 300 and 400 gm, are anesthetized, after which time trachea tube, carotid and jugular catheters are inserted. The test animal is then force ventilated employing a small animal Harvard respirator and the resistance to lung inflation (PIP) is measured utilizing a pressure transducer and recorder. The test compound is administered orally at 30 minutes prior to, intravenously (jugular) at 5 minutes prior to, or intraarterially at 1 to 5 minutes prior to the introduction of PAF. The PAF (C18 -Sandoz, Hanover) is dissolved in Tris-Tyrode's bovine serum albumin buffer and administered intravenously (jugular) at 100 ng/kg. Any blood pressure measurements taken are recorded from a transducer attached to the carotid catheter. […] (This early response is also the greatest response and is, therefore, termed mazimal PIP); and (2) the long term (at least 30 minutes) PIP response which slowly decreases to baseline. A reading at 15 minutes after the administration of PAF is termed the endpoint PIP.
Thus, a decrease in inhibition of bronchoconstriction over time (Test I) can be measured by a modification of Test B described above wherein an amount of the test compound which is x times the ED50 for the compound is intravenously administered to the test animals. By observing the time at which the test compound still inhibits 50% of the bronchoconstriction caused by the PAF challenge, the rate of loss of the test compound can be determined employing the following equation: [formula]
For data set [2], the target named is T1, Human Platelet PAF Receptor (Homo sapiens, UniProt P25105).
T1 construct: 500 μl of the above-described platelets; endogenous in cells; host or cells: washed human platelets from blood of healthy donors
T1 sequence (P25105 whole entry): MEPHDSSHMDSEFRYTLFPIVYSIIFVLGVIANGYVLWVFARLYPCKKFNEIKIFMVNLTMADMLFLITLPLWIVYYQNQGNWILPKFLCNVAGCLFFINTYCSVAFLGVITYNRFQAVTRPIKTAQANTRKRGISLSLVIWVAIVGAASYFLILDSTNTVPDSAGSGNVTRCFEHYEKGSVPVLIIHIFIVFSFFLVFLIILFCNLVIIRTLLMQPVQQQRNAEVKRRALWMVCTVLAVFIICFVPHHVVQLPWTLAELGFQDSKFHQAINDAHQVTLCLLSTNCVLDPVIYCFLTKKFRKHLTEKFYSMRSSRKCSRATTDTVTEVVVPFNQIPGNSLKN
Kind of data set: Human Platelet PAF Receptor Assay (Test A), inhibition of specific binding of [3H]-PAF to platelets. To be noted: [3H]-PAF specific binding. The protocol:
Platelet rich plasma (PRP) is prepared by centrifugation (250×g) of the blood for 20 minutes at room temperature. […] The platelets are resuspended at […] in TT/BSA containing 1.4 mM CaCl2.2H2 O and 0.7 mM MgCl2.6H2 O. All of the tests are conducted in duplicate and each of the test compounds is evaluated at concentrations of 100, 50, 1 and 0.1 μM. For each determination, the following solutions are mixed: 500 μl of the above-described platelets; 10 μl of [^3 H]-PAF (40,000 counts per minute (cpm) to a final concentration of […]); and either 10 μl of the test compound at 50× the desired final concentration, 10 μl of vehicle (total bound), or 10 μl of 1.85×10^-5 M cold PAF (non-specifically bound), […] The supernatants are then aspirated into the same scintillation vials as before and 10 ml, of Scintiverse II (a liquid scintillation cocktail) is added to and mixed therewith. The pellets are resuspended in 500 μl of Scintiverse II and mixed well. […] The amount of specific binding is calculated as the difference in cpm between the total bound [^3 H]-PAF and non-specifically bound [^3 H]-PAF. The percent inhibition of specific binding is determined by dividing the cpm specifically bound in the presence of the test compound by the cpm specifically bound in total, multiplying by 100 and then subtracting from 100. An IC50 (50% inhibitory concentration) value is generated by evaluating the test compound over the full concentration range.

Data set [3] has as its system PAF-induced hemoconcentration. Put plainly: Decrease in inhibition of hemoconcentration over time (Test J). In kind it is in vivo, guinea pig. The following applies: i.v., x times the ED50, time still inhibiting 50%.
Experimental: (§1) Male guinea pigs, weighing between 300 and 400 gm, are anesthetized, after which time a femoral catheter is inserted. The test compound is administered intraarterially at one to five minutes prior to the introduction of PAF. The PAF (C18 -Sandoz, Hanover) is dissolved in Tris-Tyrode's bovine serum albumin buffer and administered intravenously (jugular) at 100 ng/kg.
(§2) To determine the hematocrit value, which is employed to index hemoconcentration and is defined as the percent of packed red blood cells in a sample of blood which is centrifuged to separate plasma from the cellular components, blood samples are collected in 50 μl heparinized hematocrit tubes. These samples are taken just prior to the injection of PAF, one minute subsequent to the injection of PAF and every two minutes thereafter until 15 minutes has lapsed subsequent to the injection of PAF. The tubes are then centrifuged and the percent of packed red blood cells (hematocrit) is measured (PAF induces a maximal increase in hematocrit at 5 to 7 minutes subsequent to the injection of PAF). The percent increase in hematocrit over the value prior to the injection of PAF is calculated. The hematocrit values obtained with the test compound are compared to the hemoconcentration values obtained with PAF alone and are expressed as percent inhibition of percent increase in hematocrit. From the values obtained, an ED50 is generated.
Similarly, a decrease in inhibition of hemoconcentration over time (Test J) can be measured by a modification of Test C described above wherein an amount of the test compound which is x times the ED50 for the compound is intravenously administered to the test animals. By observing the time at which the test compound still inhibits 50% of the hemoconcentration caused by the PAF challenge, the rate of loss of the test compound can be determined employing the above equation.
In data set [4] the test system is PAF-mediated broncho-constriction. Kind of data set: PAF-induced Pulmonary Inflation Pressure (PIP) Increase test (Test B). Type of data set: in vivo, guinea pig. To be noted: Cavia porcellus, iv, i.a., guinea pigs, PAF 100 ng/kg i.v., maximal PIP.
Experimental: Male guinea pigs, weighing between 300 and 400 gm, are anesthetized, after which time trachea tube, carotid and jugular catheters are inserted. The test animal is then force ventilated employing a small animal Harvard respirator and the resistance to lung inflation (PIP) is measured utilizing a pressure transducer and recorder. The test compound is administered orally at 30 minutes prior to, intravenously (jugular) at 5 minutes prior to, or intraarterially at 1 to 5 minutes prior to the introduction of PAF. The PAF (C18 -Sandoz, Hanover) is dissolved in Tris-Tyrode's bovine serum albumin buffer and administered intravenously (jugular) at 100 ng/kg. Any blood pressure measurements taken are recorded from a transducer attached to the carotid catheter. Two responses are noted in the PIP recordings after the PAF is administered: (1) an immediate response which, in PAF-only treated test animals, averages out to between 70% and 80% more than the baseline PIP values. (This early response is also the greatest response and is, therefore, termed mazimal PIP); and (2) the long term (at least 30 minutes) PIP response which slowly decreases to baseline. A reading at 15 minutes after the administration of PAF is termed the endpoint PIP.
For data set [5], the system named is PAF-induced human platelet aggregation. Put plainly: Platelet Aggregation Inhibition Assay (PAIA test), PAF-induced human platelet aggregation in vitro. Type of data set: cell-based. The following applies: human platelet rich plasma. As to the method:
All of the compounds of formula I are useful as platelet activating factor inhibitors as indicated by their ability to inhibit platelet activating factor (PAF)-induced human platelet aggregation in vitro according to the Platelet Aggregation Inhibition Assay test (PAIA test) as follows: Human subjects are kept aspirin free for one week and fasted overnight. Platelet rich plasma (PRP) is prepared by centrifugation (200×g.) of freshly drawn blood anti-coagulated with 0.38% sodium citrate (final concentration). Platelet count is adjusted to 250,000 per μl using platelet poor plasma (PPP) obtained by a second centrifugation (700×g.) of the blood sample. An aliquot (0.38 ml) of the PRP is dispensed into cuvettes and maintained at room temperature (22° C.) until used (but for not more than two hours). […] All aggregations are allowed to proceed for 6 minutes for the addition of the inducing agent. The aggregation response is quantitated by determining the area under the curve (AUC). The AUC calculated for the inducing agent alone is considered to be one hundred percent. The potential percent inhibition of the aggregation response is determined by dividing the AUC generated in the presence of the compound by the AUC of the inducing agent alone, multiplying by 100 and then subtracting from 100.

Data set [6] deals with PAF-mediated extravasation. Kind of data set: PAF-induced Extravasation test (Test C), hemoconcentration. In kind it is in vivo, guinea pig. To be noted: Cavia porcellus, iv, i.a., guinea pigs, PAF 100 ng/kg i.v., increase in hematocrit.
Experimental: as §1, §2
A further data set has as its system PAF-induced hypotension. Put plainly: PAF-induced hypotension test (Test D). To be noted: for ED50: Rattus norvegicus, iv, Test D, Wistar rats, PAF-induced blood pressure decrease; for decrease in blood pressure: within 10 sec. In kind it is in vivo, Wistar rat.

Experimental for PAF-induced hypotension: Male Wistar rats, weighing approximately 300 gm, are anesthetized and their carotid arteries cannulated to enable their diastolic and systolic arterial blood pressure measurements to be recorded. PAF is then administered intravenously at either 100 or 500 ng/kg, and the blood pressure drop (within 10 sec.) and recovery time required to reach the pre-injection blood pressure level are measured. […] In order to measure the effectiveness of a compound for both the inhibition of blood pressure decreases and shortening of the recovery time, the test compound is administered intravenously over a range of between 5 and 7 dosage levels (1 or 2 test animals per dose) and between 1 and 5 minutes prior to the introduction of PAF to generate an ED50.

Broadly, the IC50 is the concentration needed to halve the response being measured. The low end stands for higher potency, the high end for lower potency. A word on the ED50: it is the midpoint of the dose-response relation. As for `CCCCCCCCCCCCCCCCCCNC(=O)OC[C@@]1(C)CC[C@@](C)(COC(=O)N(Cc2cccc[n+]2CC)C(C)=O)O1` (relative stereo) [Example 9, Cis-2-[acetyl[[tetrahydro-2,5-dimethyl-5-[[[[(octadecyl)amino]carbonyl]oxy]methyl]furan-2-yl]methoxycarbonyl]aminomethyl]-1-ethylpyridinium chloride], the Rate of loss in data set [1] amounted to 0.88 µg/kg/min; in data set [3], 0.92 µg/kg/min. Besides, the IC50 in data set [2] came to 60 nM; in data set [5] it was 350 nM. The values for the ED50 in data set [4] and in data set [6] were 20 µg/kg and 15 µg/kg, respectively.

With `CCCCCCCCCCCCCCCCCCNC(=O)OC[C@@]1(C)CC[C@@](C)(COC(=O)N(C)Cc2cccc[n+]2C)O1` (relative stereo) [Example 12, Cis-2-[methyl[[tetrahydro-2,5-dimethyl-5-[[[[(octadecyl)amino]carbonyl]oxy]methyl]furan-2-yl]methoxycarbonyl]aminomethyl]-1-methylpyridinium chloride], the IC50 in data set [2] turned out to be 2200 nM; in data set [5], 2000 nM.

As to `CCCCCCCCCCCCCCCCCCNC(=O)OCC1(COC(=O)N(Cc2cccc[n+]2CC)C(=O)c2ccccc2)CCCO1` (stereo not shown) [Example 7, 2-[Benzoyl[[tetrahydro-2-[[[[(octadecyl)amino]carbonyl]oxy]methyl]furan-2-yl]-methoxycarbonyl]aminomethyl]-1-ethylpyridinium chloride], the IC50 in data set [2] is 16 nM; in data set [5], 840 nM.

For `CCCCCCCCCCCCCCCCCCNC(=O)OCC1(COC(=O)N(Cc2cccc[n+]2CC)C(C)=O)CCCO1` (stereo not shown) [Example 1, 2-[Acetyl[[tetrahydro-2-[[[[(octadecyl)-amino]carbonyl]oxy]methyl]furan-2-yl]-methoxycarbonyl]aminomethyl]-1-ethylpyridinium chloride], the Rate of loss is 0.3 µg/kg/min in data set [1] and 0.35 µg/kg/min in data set [3]. Further, the values for the IC50 in data set [2] and in data set [5] were 10 nM and 40 nM, respectively. In addition, the ED50 is 2.5 µg/kg in data set [4], 3 µg/kg with PAF-induced hypotension and 2.8 µg/kg in data set [6].

With `CCCCCCCCCCCCCCCCCCNC(=O)OC[C@@]1(C)CC[C@@](C)(COC(=O)NCc2cc(C)cc(C)[n+]2C)O1` (relative stereo) [Example 11, Cis-2-[[[tetrahydro-2,5-dimethyl-5-[[[[(octadecyl)amino]carbonyl]oxy]methyl]furan-2-yl]methoxycarbonyl]aminomethyl]-1,4,6-trimethylpyridinium chloride], the IC50 turned out to be 450 nM in data set [2] and 2200 nM in data set [5].

For the molecule `CCCCCCCCCCCCCCCCCCNC(=O)OCC1(COC(=O)NCc2cccc[n+]2CC)CCCO1` (stereo not shown) [Example 2, 2-[[[Tetrahydro-2-[[[[(octadecyl)amino]carbonyl]oxy]methyl]furan-2-yl]methoxycarbonyl]aminomethyl]-1-ethylpyridinium chloride], the figures for the IC50 in data set [2] and in data set [5] were 800 nM and 16000 nM, respectively.

Consider `CCCCCCCCCCCCCCCCCCN(C(C)=O)C(=O)OCC1(COC(=O)N(Cc2cccc[n+]2CC)C(C)=O)CCCO1` (stereo not shown) [Example 5, 2-[Acetyl[[tetrahydro-2-[[[[[acetyl(octadecyl)amino]carbonyl]oxy]methyl]furan-2-yl]methoxycarbonyl]aminomethyl]-1-ethylpyridinium chloride], for which the values for the IC50 in data set [2] and in data set [5] were 2 nM and 48 nM, respectively. Also, the ED50 in data set [4] came out at 4 µg/kg; in the data set with PAF-induced hypotension, 4.5 µg/kg; in data set [6] it was 4 µg/kg.

With `CCCCCCCCCCCCCCCCCCNC(=O)OCC1(COC(=O)NCCCCCc2cccc[n+]2CC)CCCO1.[Cl-]` (stereo not shown) [Example 3, 2-[5-[[[Tetrahydro-2-[[[[(octadecyl)-amino]carbonyl]oxy]methyl]furan-2-yl]methoxycarbonyl]amino]pentyl]-1-ethylpyridinium chloride], the Rate of loss in data set [1] came out at 0.66 µg/kg/min; in data set [3], 0.65 µg/kg/min. The figures for the IC50 in data set [2] and in data set [5] were 20 nM and 300 nM, respectively. For the same molecule, the ED50 in data set [4] was found to be 5 µg/kg; with PAF-induced hypotension, 27 µg/kg; in data set [6], 8.5 µg/kg.

For `CCCCCCCCCCCCCCCCCCNC(=O)OC[C@@]1(C)CC[C@@](C)(COC(=O)NCc2cccc[n+]2CC)O1` (relative stereo) [Example 10, Cis-2-[[[tetrahydro-5-[[[[(octadecyl)amino]carbonyl]oxy]methyl]-2,5-dimethyl-furan-2-yl]methoxycarbonyl]aminomethyl]-1-ethylpyridinium chloride], the Rate of loss was 30.0 µg/kg/min in data set [1] and 10.21 µg/kg/min in data set [3]. Also, the IC50 came to 560 nM in data set [2] and 550 nM in data set [5]. The figures for the median effective dose (ED50) in data set [4] and in data set [6] were 150 µg/kg and 60 µg/kg, respectively.

`CCCCCCCCCCCCCCCCCCNC(=O)OCC1(COC(=O)N(Cc2cccc[n+]2CC)C(=O)C(C)(C)C)CCCO1` (stereo not shown) [Example 6, 2-[Trimethylacetyl[[tetrahydro-2-[[[[(octadecyl)amino]carbonyl]oxy]methyl]furan-2-yl]methoxycarbonyl]aminomethyl]-1-ethylpyridinium chloride]: the IC50 in data set [2] is 85 nM; in data set [5], 500 nM.

Turning to `CCCCCCCCCCCCCCCCCCOCC1(COC(=O)N(Cc2cccc[n+]2CC)C(C)=O)CCCO1` (stereo not shown) [Example 8, 2-[Acetyl[[tetrahydro-2-[(octadecyloxy)methyl]furan-2-yl]methoxycarbonyl]aminomethyl]-1-ethylpyridinium chloride], the values for the IC50 in data set [2] and in data set [5] were 14 nM and 860 nM, respectively.

For `CCCCCCCCCCCCCCCCCCNC(=O)OCC1(COC(=O)N(CCCCCc2cccc[n+]2CC)C(C)=O)CCCO1.[Cl-]` (stereo not shown) [Example 4, 2-[5-[Acetyl[[tetrahydro-2-[[[[(octadecyl)-amino]carbonyl]oxy]methyl]furan-2-yl]methoxycarbonyl]amino]pentyl]-1-ethylpyridinium chloride], the Rate of loss stood at 0.35 µg/kg/min in data set [1] and 1.10 µg/kg/min in data set [3]. The IC50 came to 8 nM in data set [2] and 130 nM in data set [5]. Also, the ED50 in data set [4] was found to be 15 µg/kg; in data set [6] it was 17 µg/kg.

In the case of “1-O-alkyl-2-acetyl-sn-glyceryl-3-phosphoryl-choline [PAF, reference compound]”, the “decrease in blood pressure” value is recorded as 30% in the data set with PAF-induced hypotension (PAF 100 ng/kg i.v.) and 52% in the data set with PAF-induced hypotension (PAF 500 ng/kg i.v.). The “recovery time to pre-injection blood pressure level” value with PAF-induced hypotension (PAF 500 ng/kg i.v.) turned out to be 10 min.
